Data: patent EP4667483A1, “HUMAN TRANSFERRIN RECEPTOR-BINDING PEPTIDE” (JCR Pharmaceuticals Co., Ltd., priority 2023, dated 2024)
Numbered stars: 1 amine (or outer) side, 2 acyl side, 3 side chain; on linkers, the order of the positions; unused ones are H or OH. Bridge positions count the residues as written; N and C are the ends. Square brackets hold non-standard residues; d marks the D form. Peptide text beside a SMILES is read from it. Ala(imidazo(1,2-a)pyr3yl) = N[C@@H](Cc1cnc2ccccn12)C(=O)O; NMePhe(4-COOH) = CN[C@@H](Cc1ccc(C(=O)O)cc1)C(=O)O; X1 = O=C([C@H](Cc1cccc(C(=O)[*:3])c1)N[*:1])[*:2]; NMePhe(3-Cl) = CN[C@@H](Cc1cccc(Cl)c1)C(=O)O; 3Pal(6-NH2) = Nc1ccc(C[C@H](N)C(=O)O)cn1; NMeW = CN[C@@H](Cc1c[nH]c2ccccc12)C(=O)O; Lys(N3) = [N-]=[N+]=NCCCC[C@H](N)C(=O)O; NMeY = CN[C@@H](Cc1ccc(O)cc1)C(=O)O; Nva(3-Et) = CCC(CC)[C@H](N)C(=O)O; NMeF = CN[C@@H](Cc1ccccc1)C(=O)O; 4Pal = N[C@@H](Cc1ccncc1)C(=O)O; PEG4 = NCCOCCOCCOCCOCCC(=O)O

Tests used:
[1] = biological target: T1, human transferrin receptor (hTfR) (Homo sapiens, UniProt P02786); experiment: SPR measurement under pH 7.4 conditions (Biacore T200, CM3 chip, hTfR captured by His Tag antibody); format: binding; conditions: SPR, pH 7.4; Table 1-3-2-2; read-out: hTfR SPR pH7.4 KD
[2] = biological target: T1, human transferrin receptor (hTfR); experiment: SPR measurement under pH 6.0 conditions (Biacore T200, NTA chip, immobilized hTfR); format: binding; conditions: SPR, pH 6.0; Table 1-3-2-2; read-out: hTfR SPR pH6.0 KD

T1 sequence (P02786 whole entry): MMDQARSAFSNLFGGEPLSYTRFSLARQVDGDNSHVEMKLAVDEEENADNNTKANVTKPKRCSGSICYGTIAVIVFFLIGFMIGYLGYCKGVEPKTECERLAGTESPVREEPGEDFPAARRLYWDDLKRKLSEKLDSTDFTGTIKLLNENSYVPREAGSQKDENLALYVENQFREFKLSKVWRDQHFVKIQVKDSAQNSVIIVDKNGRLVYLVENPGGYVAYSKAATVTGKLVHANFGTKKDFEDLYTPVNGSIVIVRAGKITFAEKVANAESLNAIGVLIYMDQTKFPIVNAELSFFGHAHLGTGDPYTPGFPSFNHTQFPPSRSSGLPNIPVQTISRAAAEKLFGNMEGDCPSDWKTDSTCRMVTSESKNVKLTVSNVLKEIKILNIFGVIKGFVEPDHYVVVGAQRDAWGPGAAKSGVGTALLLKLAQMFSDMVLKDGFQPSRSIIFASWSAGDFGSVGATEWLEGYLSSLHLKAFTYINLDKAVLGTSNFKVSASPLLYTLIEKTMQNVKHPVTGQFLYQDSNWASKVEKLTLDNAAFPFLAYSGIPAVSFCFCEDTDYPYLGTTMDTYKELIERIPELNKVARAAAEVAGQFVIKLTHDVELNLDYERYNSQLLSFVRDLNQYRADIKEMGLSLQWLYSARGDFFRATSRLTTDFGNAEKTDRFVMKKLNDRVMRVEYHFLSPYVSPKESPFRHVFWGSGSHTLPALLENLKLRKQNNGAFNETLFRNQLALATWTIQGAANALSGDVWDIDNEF

In the case of `CC[C@H](C)[C@@H]1NC(=O)[C@H](Cc2ccc(OC)cc2)NC(=O)[C@H](Cc2ccc(N)nc2)NC(=O)[C@H](CC(N)=O)NC(=O)[C@H](Cc2c[nH]c3ccccc23)NC(=O)[C@H](C(C)C)NC(=O)[C@H](Cc2cccc(Cl)c2)N(C)C(=O)[C@H](C(C)C)NC(=O)[C@H](C)NC(=O)CSC[C@@H](C(=O)NCC(=O)NCC(=O)NCC(=O)NCC(=O)N[C@@H](CO)C(=O)N[C@@H](CO)C(=O)N[C@@H](CCCCN=[N+]=[N-])C(N)=O)NC(=O)[C@H](Cc2ccc(O)cc2)N(C)C(=O)[C@H](Cc2ccncc2)NC(=O)[C@H](CCCNC(=N)N)NC(=O)[C@H](CCCNC(=N)N)NC(=O)[C@H]([C@@H](C)CC)NC1=O` [compound 191], the Kd [1] is reported as 0.89 nM and the Kd [2] is reported as 3.82 nM.
Work on `CC[C@H](C)[C@@H]1NC(=O)[C@H](Cc2ccc(OC)cc2)NC(=O)[C@H](Cc2ccc(N)nc2)NC(=O)[C@H](CC(N)=O)NC(=O)[C@H](Cc2c[nH]c3ncccc23)NC(=O)[C@H](C(C)C)NC(=O)[C@H](Cc2cccc(Cl)c2)N(C)C(=O)[C@H](C(C)C)NC(=O)[C@H](C)NC(=O)CSC[C@@H](C(=O)NCC(=O)NCC(=O)NCC(=O)NCC(=O)N[C@@H](CO)C(=O)N[C@@H](CO)C(=O)N[C@@H](CCCCN=[N+]=[N-])C(N)=O)NC(=O)[C@H](Cc2ccc(O)cc2)N(C)C(=O)[C@H](Cc2ccncc2)NC(=O)[C@H](CCCCN2CCOCC2)NC(=O)[C@H](CCCCN2CCOCC2)NC(=O)[C@H]([C@@H](C)CC)NC1=O` [compound 192] yielded a Kd [1] of 1.49 nM and a Kd [2] of 10.5 nM.
`CCC(CC)[C@@H]1NC(=O)[C@H](Cc2ccc(O)cc2)NC(=O)[C@H](Cc2ccc(O)cc2)NC(=O)[C@H](CC(N)=O)NC(=O)[C@H](Cc2c[nH]c3ccccc23)N(C)C(=O)[C@H](C(C)C)NC(=O)[C@H](Cc2ccccc2)N(C)C(=O)[C@H](C(C)C)NC(=O)[C@H](C)NC(=O)CSC[C@@H](C(=O)NCC(=O)N[C@@H](CCCCN=[N+]=[N-])C(N)=O)NC(=O)[C@H](Cc2ccc(C(=O)O)cc2)N(C)C(=O)[C@H](Cc2cccc(C(=O)NCCOCCOCCOCCOCCC(=O)O)c2)NC(=O)[C@H](CCCNC(=N)N)NC(=O)[C@H](CCCCN)NC(=O)[C@H]([C@@H](C)CC)NC1=O` [compound 194] ({CH2CO}-AV[NMeF]V[NMeW]NYY[Nva(3-Et)]IKR[X1](PEG4)[NMePhe(4-COOH)]CG[Lys(N3)]-NH2; thioether N-15) was tested, and the Kd [1] was 4.62 nM and the Kd [2] was 14.9 nM.
With `CC[C@H](C)[C@@H]1NC(=O)[C@H](Cc2ccc(O)cc2)NC(=O)[C@H](Cc2ccc(N)nc2)NC(=O)[C@H](CC(N)=O)NC(=O)[C@H](Cc2c[nH]c3ccccc23)N(C)C(=O)[C@H](C(C)C)NC(=O)[C@H](Cc2ccccc2)N(C)C(=O)[C@H](C(C)C)NC(=O)[C@H](C)NC(=O)CSC[C@@H](C(=O)NCC(=O)N[C@@H](CCCCN=[N+]=[N-])C(N)=O)NC(=O)[C@H](Cc2ccc(C(=O)O)cc2)N(C)C(=O)[C@H](Cc2ccc(O)cc2)NC(=O)[C@H](CCCNC(=N)N)NC(=O)[C@H](CCCCN)NC(=O)[C@H]([C@@H](C)CC)NC1=O` [compound 196] ({CH2CO}-AV[NMeF]V[NMeW]N[3Pal(6-NH2)]YIIKRY[NMePhe(4-COOH)]CG[Lys(N3)]-NH2; thioether N-15) the Kd [1] was 2.94 nM and the Kd [2] was 13.9 nM.
`CC[C@H](C)[C@@H]1NC(=O)[C@H](Cc2ccc(OC)cc2)NC(=O)[C@H](Cc2ccc(N)nc2)NC(=O)[C@H](CC(N)=O)NC(=O)[C@H](Cc2cnc3ccccn23)NC(=O)[C@H](C(C)C)NC(=O)[C@H](Cc2cccc(Cl)c2)N(C)C(=O)[C@H](C(C)C)NC(=O)[C@H](C)NC(=O)CSC[C@@H](C(=O)NCC(=O)N[C@@H](CCCCN=[N+]=[N-])C(N)=O)NC(=O)[C@H](Cc2ccc(O)cc2)N(C)C(=O)[C@H](Cc2ccncc2)NC(=O)[C@H](CCCNC(=N)N)NC(=O)[C@H](CCCNC(=N)N)NC(=O)[C@H]([C@@H](C)CC)NC1=O` [compound 197] ({CH2CO}-AV[NMePhe(3-Cl)]V[Ala(imidazo(1,2-a)pyr3yl)]N[3Pal(6-NH2)]Y(Me)IIRR[4Pal][NMeY]CG[Lys(N3)]-NH2; thioether N-15) showed a Kd [1] of 5.09 nM and a Kd [2] of 43.9 nM.
